Columns and labels:
[1] = system: UACC-62; experiment: NCI one-dose screening, melanoma UACC-62; type: cell-based, human; conditions: UACC-62, 10 μM
[2] = system: EKVX; experiment: NCI one-dose screening, non-small cell lung cancer EKVX; type: cell-based, human; conditions: EKVX
[3] = system: OVCAR-4; experiment: NCI one-dose screening, ovarian cancer OVCAR-4; type: cell-based, human; conditions: OVCAR-4, 10 μM
[4] = system: NCI-H460; experiment: NCI one-dose screening, non-small cell lung cancer NCI-H460; type: cell-based, human; conditions: NCI-H460, 10 μM
[5] = system: SNB-75; experiment: NCI one-dose screening, CNS cancer SNB-75; type: cell-based, human; conditions: SNB-75, 10 μM
[6] = system: M14; experiment: NCI one-dose screening, melanoma M14; type: cell-based, human; conditions: M14, 10 μM
[7] = system: PC-3 prostate cancer cell line; experiment: SRB assay cell viability, PC-3 prostate cancer cell line; type: cell-based, human; conditions: Homo sapiens, PC-3 prostate cancer cell line, Table II prints no unit, μM printed, read-out: SRB assay: 50% inhibition of cancer cell proliferation of sample concentration (IC50) of PC-3 prostate cancer cell line
[8] = system: NCI-H322M; experiment: NCI one-dose screening, non-small cell lung cancer NCI-H322M; type: cell-based, human; conditions: Non-small cell lung cancer, NCI-H322M, 10 μM
[9] = system: PC-3; experiment: NCI one-dose screening, prostate cancer PC-3; type: cell-based, human; conditions: PC-3, 10 μM
[10] = system: MDA, -MB-435; experiment: NCI one-dose screening, breast cancer MDA, -MB-435; type: cell-based, human; conditions: Melanoma, MDA-MB-435, 10 μM
[11] = system: NCI-H226; experiment: NCI one-dose screening, non-small cell lung cancer NCI-H226; type: cell-based, human; conditions: NCI-H226, 10 μM
[12] = system: 786-O; experiment: NCI one-dose screening, renal cancer 786-O; type: cell-based, human; conditions: 786-0, 10 μM
[13] = system: T-47D; experiment: NCI one-dose screening, breast cancer T-47D; type: cell-based, human; conditions: T-47D
[14] = system: BT-549; experiment: NCI one-dose screening, breast cancer BT-549; type: cell-based, human; conditions: BT-549, 10 μM
[15] = system: OVCAR-3; experiment: NCI one-dose screening, ovarian cancer OVCAR-3; type: cell-based, human; conditions: OVCAR-3, 10 μM
[16] = system: TK-10; experiment: NCI one-dose screening, renal cancer TK-10; type: cell-based, human; conditions: TK-10, 10 μM
[17] = system: HCC-2998; experiment: NCI one-dose screening, colon cancer HCC-2998; type: cell-based, human; conditions: HCC-2998, 10 μM
[18] = system: MDA-MB-231/ATCC; experiment: NCI one-dose screening, breast cancer MDA-MB-231/ATCC; type: cell-based, human; conditions: MDA-MB-231/ATCC
[19] = system: U251; experiment: NCI one-dose screening, CNS cancer U251; type: cell-based, human; conditions: U251, 10 μM
[20] = system: K562cell line; experiment: NCI one-dose screening, leukemia K562; type: cell-based, human; conditions: K562, 10 μM
[21] = system: LOX IMVI; experiment: NCI one-dose screening, melanoma LOX IMVI; type: cell-based, human; conditions: LOX IMVI
[22] = system: SF-295; experiment: NCI one-dose screening, CNS cancer SF-295; type: cell-based, human; conditions: SF-295, 10 μM
[23] = system: HT29; experiment: NCI one-dose screening, colon cancer HT29; type: cell-based, human; conditions: HT29, 10 μM
[24] = system: CCRF-CEM; experiment: NCI screening platform one-dose single concentration screening, leukemia CCRF-CEM; type: cell-based, human; conditions: CCRF-CEM
[25] = system: SF-268; experiment: NCI one-dose screening, CNS cancer SF-268; type: cell-based, human; conditions: SF-268, 10 μM
[26] = system: NCI-H522; experiment: NCI one-dose screening, non-small cell lung cancer NCI-H522; type: cell-based, human; conditions: NCI-H522, 10 μM
[27] = system: PRMI-8226 cell line; experiment: NCI one-dose screening, leukemia PRMI-8226; type: cell-based, human; conditions: RPMI-8226, 10 μM
[28] = system: CAKI-1; experiment: NCI one-dose screening, renal cancer CAKI-1; type: cell-based, human; conditions: CAKI-1, 10 μM
[29] = system: HCT-116; experiment: NCI one-dose screening, colon cancer HCT-116; type: cell-based, human; conditions: HCT-116, 10 μM
[30] = system: HS 578-T; experiment: NCI one-dose screening, breast cancer HS 578-T; type: cell-based, human; conditions: Breast cancer, HS 578T, 10 μM
[31] = system: MALME-3M; experiment: NCI one-dose screening, melanoma MALME-3M; type: cell-based, human; conditions: MALME-3M
[32] = system: NCI-H23; experiment: NCI one-dose screening, non-small cell lung cancer NCI-H23; type: cell-based, human; conditions: NCI-H23, 10 μM
[33] = system: SN12C; experiment: NCI one-dose screening, renal cancer SN12C; type: cell-based, human; conditions: SN12C
[34] = system: SNB-19; experiment: NCI one-dose screening, CNS cancer SNB-19; type: cell-based, human; conditions: SNB-19, 10 μM
[35] = system: MDA-MB-468; experiment: NCI one-dose screening, breast cancer MDA-MB-468; type: cell-based, human; conditions: MDA-MB-468, 10 μM
[36] = system: MCF7; experiment: NCI one-dose screening, breast cancer MCF7; type: cell-based, human; conditions: MCF7, 10 μM
[37] = system: human tumor cell lines; experiment: NCI one-dose screening, mean, delta and range of growth percent over all cell lines tested; type: cell-based
[38] = system: HL-60, TB; experiment: NCI one-dose screening, leukemia HL-60, TB; type: cell-based, human; conditions: HL-60(TB)
[39] = system: COLO 205; experiment: NCI one-dose screening, colon cancer COLO 205; type: cell-based, human; conditions: COLO 205, 10 μM
[40] = system: A549/ATCC; experiment: NCI one-dose screening, non-small cell lung cancer A549/ATCC; type: cell-based, human; conditions: A549/ATCC
[41] = system: IGROV1; experiment: NCI one-dose screening, ovarian cancer IGROV1; type: cell-based, human; conditions: IGROV1, 10 μM
[42] = system: UACC-257; experiment: NCI one-dose screening, melanoma UACC-257; type: cell-based, human; conditions: UACC-257, 10 μM
[43] = system: OVCAR-5; experiment: NCI one-dose screening, ovarian cancer OVCAR-5; type: cell-based, human; conditions: OVCAR-5, 10 μM

**Q.** Cc1ccc(Nc2cc3c(c4nsnc24)C(=O)c2ccccc2C3=O)cc1 [C64, 4-(p-tolylamino)anthra[2,1-c][1,2,5] thiadiazol-6,11-dione] was tested. Which “Growth Percent (10 μM)” value [1] did it give?
**A.** 67.41%

**Q.** And the “Growth Percent (10 μM)” value [2]?
**A.** 82.17%

**Q.** And the “Growth Percent (10 μM)” value [3]?
**A.** 31.44%

**Q.** What about the “Growth Percent (10 μM)” value [4] of the same molecule?
**A.** 21.80%

**Q.** And the “Growth Percent (10 μM)” value [5]?
**A.** 80.91%

**Q.** What about the “Growth Percent (10 μM)” value [6] of the same molecule?
**A.** 76.72%

**Q.** What about the IC50 [7] of the same molecule?
**A.** 0.84 µM

**Q.** What about the “Growth Percent (10 μM)” value [8] of the same molecule?
**A.** 94.85%

**Q.** And the “Growth Percent (10 μM)” value [9]?
**A.** 45.73%

**Q.** What about the “Growth Percent (10 μM)” value [10] of the same molecule?
**A.** 65.53%

**Q.** And the “Growth Percent (10 μM)” value [11]?
**A.** 66.61%

**Q.** What about the “Growth Percent (10 μM)” value [12] of the same molecule?
**A.** 74.18%

**Q.** And the “Growth Percent (10 μM)” value [13]?
**A.** 64.48%

**Q.** What about the “Growth Percent (10 μM)” value [14] of the same molecule?
**A.** 76.36%

**Q.** And the “Growth Percent (10 μM)” value [15]?
**A.** 57.92%

**Q.** What about the “Growth Percent (10 μM)” value [16] of the same molecule?
**A.** 95.15%

**Q.** And the “Growth Percent (10 μM)” value [17]?
**A.** 95.82%

**Q.** What about the “Growth Percent (10 μM)” value [18] of the same molecule?
**A.** 73.83%

**Q.** What about the “Growth Percent (10 μM)” value [19] of the same molecule?
**A.** 34.17%

**Q.** What about the “Growth Percent (10 μM)” value [20] of the same molecule?
**A.** 33.45%

**Q.** And the “Growth Percent (10 μM)” value [21]?
**A.** 27.05%

**Q.** And the “Growth Percent (10 μM)” value [22]?
**A.** 75.76%

**Q.** What about the “Growth Percent (10 μM)” value [23] of the same molecule?
**A.** 96.29%

**Q.** What about the “Growth Percent (10 μM)” value [24] of the same molecule?
**A.** 59.59%

**Q.** And the “Growth Percent (10 μM)” value [25]?
**A.** 52.27%

**Q.** What about the “Growth Percent (10 μM)” value [26] of the same molecule?
**A.** 53.06%

**Q.** And the “Growth Percent (10 μM)” value [27]?
**A.** 21.59%

**Q.** What about the “Growth Percent (10 μM)” value [28] of the same molecule?
**A.** 50.33%

**Q.** And the “Growth Percent (10 μM)” value [29]?
**A.** 31.32%

**Q.** What about the “Growth Percent (10 μM)” value [30] of the same molecule?
**A.** 78.75%

**Q.** What about the “Growth Percent (10 μM)” value [31] of the same molecule?
**A.** 78.41%

**Q.** And the “Growth Percent (10 μM)” value [32]?
**A.** 45.87%

**Q.** What about the “Growth Percent (10 μM)” value [33] of the same molecule?
**A.** 74.58%

**Q.** And the “Growth Percent (10 μM)” value [34]?
**A.** 82.28%

**Q.** What about the “Growth Percent (10 μM)” value [35] of the same molecule?
**A.** 58.18%

**Q.** And the “Growth Percent (10 μM)” value [36]?
**A.** 46.59%

**Q.** What about the “Growth Percent (10 μM), Delta” value ([37]; Delta over all cell lines tested) of the same molecule?
**A.** 48.49%

**Q.** And the “Growth Percent (10 μM), Mean” value ([37]; Mean over all cell lines tested)?
**A.** 61.35%

**Q.** What about the “Growth Percent (10 μM), Range” value ([37]; Range over all cell lines tested) of the same molecule?
**A.** 96.99%

**Q.** And the “Growth Percent (10 μM)” value [38]?
**A.** 46.13%

**Q.** And the “Growth Percent (10 μM)” value [39]?
**A.** 100.68%

**Q.** And the “Growth Percent (10 μM)” value [40]?
**A.** 56.25%

**Q.** What about the “Growth Percent (10 μM)” value [41] of the same molecule?
**A.** 49.40%

**Q.** And the “Growth Percent (10 μM)” value [42]?
**A.** 71.17%

**Q.** What about the “Growth Percent (10 μM)” value [43] of the same molecule?
**A.** 109.85%

— patent US8877748B2, “Heterocyclic fused anthraquinone derivatives, manufacturing method and pharmaceutical composition using thereof” (National Defense Medical Center, priority 2012, dated 2014)
